Test results: paper PMC3356272, “An Analogue of the Antibiotic Teicoplanin Prevents Flavivirus Entry In Vitro” (PLoS ONE, 2012)

Experiments:
YFV-17D [1] = assay type: cell-based, yellow fever virus
DENV subgenomic replicon = assay: DENV replicon system; assay type: cell-based, dengue virus; settings: BHK-Rep-Pac-LUC cells, luciferase at 72 hours
DiD-labeled DENV = assay: Fusion assay with DiD-labeled DENV; assay type: cell-based, dengue virus; settings: BS-C-1 cells; for membrane fusion activity of DENV, reference controls: NH4Cl 50 mM, chlorpromazine 60 µM
DENV-2 NGC [2] = assay: CPE-reduction assay; settings: 25 and 12.5 µM, Vero-B cells, day 8 p.i.
DENV-2 NGC [3] = assay type: cell-based, dengue virus
dengue reporter virus = assay type: cell-based
YFV-17D [4] = assay type: cell-based, yellow fever virus; remark: listed apart in the source
[5] = tested on: uninfected host cell cultures; assay: Cell counting with a Coulter Counter; assay type: cell-based; settings: 50 and 100 µM, cells counted with a Coulter Counter
DENV-2 = assay: Virucidal assay; settings: 50 µM, 1 h, 37°C, with or without RNase A

Structure (SMILES) | YFV NS1 protein expression (YFV-17D [1]) | replication of the DENV subgenomic replicon (DENV subgenomic replicon) | cytotoxic effects (P388D1 cells) | membrane fusion activity of DENV (DiD-labeled DENV; 20 min p.i. at 37°C, 6.25-25.0 µM) | DENV-2-induced CPE formation (DENV-2 NGC [2]) | DENV E protein expression (DENV-2 NGC [3]) | inhibition of DENV infection (dengue reporter virus) | inhibition of viral replication and viral antigen expression (dengue reporter virus) | inhibition of viral replication (YFV-17D [4]) | protective activity against YFV (YFV-17D [4]) | cytostatic effects [5] | direct virucidal activity (DENV-2) | cytotoxicity (Vero-B cells) | viability of uninfected host cell cultures (Vero-B cells) | CC50 (Vero-B cells; green monkey) | membrane fusion activity of DENV, reference controls (DiD-labeled DENV)
CC(C)(C)OC(=O)NC1C(=O)NC2Cc3ccc(c(Cl)c3)Oc3cc4cc(c3O)Oc3ccc(cc3Cl)C(O)C3NC(=O)C(NC(=O)C4NC(=O)C(NC2=O)c2cc(O)cc(c2)Oc2cc1ccc2O)c1ccc(O)c(c1)-c1c(O)cc(O)cc1C(C(=O)NC1C2CC4CC(C2)CC1C4)NC3=O (centres unmarked) [LCTA-949] | completely inhibited | did not inhibit | No cytotoxic effects | markedly impaired | completely inhibited | completely inhibited | failed to efficiently inhibit | nearly complete inhibition | nearly complete inhibition | most of the protective activity of LCTA-949 was already lost | some cytostatic effects | does not destroy the viral particle | did not prove cytotoxic | did not reduce viability | > 100 µM | –
Cl.N [ammonium chloride] | – | – | – | – | – | – | – | – | – | – | – | – | – | – | – | efficiently reduced
CN(C)CCCN1c2ccccc2Sc2ccc(Cl)cc21 [chlorpromazine] | – | – | – | – | – | – | – | – | – | – | – | – | – | – | – | efficiently reduced
